Source: paper PMC8703450, “New Heterocyclic Combretastatin A-4 Analogs: Synthesis and Biological Activity of Styryl-2(3H)-benzothiazolones” (Pharmaceuticals, 2021)

Assays:
A549 cells = experiment: MTT cytotoxicity assay, A549; type: cell-based; settings: Homo sapiens, 72 h
Experimental: All tested compounds were dissolved in DMSO at 25 mM initial concentration and diluted with medium to obtain the working concentrations (0.01 nM–250 µM). Serial drug dilutions were prepared in medium immediately before each experiment. The DMSO working concentration in the medium was […]. For the MTT assay, cells were seeded into 96-well microtitre plates at a density of 1 × 10^4 in 100 µL complete medium per well. They were further incubated for 24 h, followed by treatment with CA-4 analogs up to 72 h. Cell viability was determined using the MTT assay. Ten µL of MTT solution (5 mg/mL) was added to each well and further incubated for 3 h at 37 °C. To dissolve the formazan product, 100 µL/well of 99.5% isopropanol was added. Cell viability was determined by measuring absorbance at 550/630 nm using a DTX880 plate reader (Beckman Coulter, USA). Results, expressed as concentrations that inhibit 20% (IC20), 50% (IC50), and 80% (IC80) of cell growth, were calculated using GraphPad Prism 8.0.1.
Table S 3.1. Description of eukaryotic cell lines used for MTT assay.
Panel Cell line Origin Tissue, characteristics Source Culture conditions
(h) lung carcinoma ATCC, CCL-185 U/mL penicillin, 100
lung, bronchus; insulin, rhEGF, GA- […]
Colon BAS) 10% (v/v) FBS, 100

EA.hy926 cells = experiment: Immunofluorescence of mitotic spindles (α-tubulin); type: cell-based, human; settings: 24 h
Experimental: Indirect immunofluorescence was used to examine the effect of 26Z on α-tubulin in EA.hy 926 cells. A total of 1 × 10^4 cells grown on coverslips were washed with PBS and fixed with 3.7% buffered paraformaldehyde. Single fluorescence cell labeling was performed, as described by Apostolova et al., with a primary chicken antibody against α-tubulin (ab89984, Abcam) for 2 h. Cells were washed three times with PBS for 5 min and incubated for 60 min with a goat anti-chicken secondary antibody labeled with AlexaFluor-488 (ab150173, Abcam). F-actin was detected using AlexaFluor-568 Phalloidin (Invitrogen, MA, USA). Following three washes with PBS and two in water, the slides were mounted in UltraCruz fluorescence mounting medium with DAPI (sc-24941, Santa Cruz Biotechnology, USA). Fluorescence microscopy was performed with a Carl Zeiss Axiovert 200 M Inverted Microscope and Andor Dragonfly 505 Confocal Microscope equipped with an iXon Ultra 888 EMCCD camera (Andor, Oxford Instruments, Belfast, Northern Irelands).

COc1ccc(/C=C\c2cc(OC)c(OC)c(OC)c2)cc1O [CA-4, Combretastatin A-4]
IC50 (A549 cells): 3.01 ± 0.16 µM

COc1cc(/C=C\c2ccc3c(c2)sc(=O)n3C)cc(OC)c1OC [Compound 26Z, (Z)-3-methyl-6-(3,4,5-trimethoxystyryl)-2(3H)-benzothiazolone]
number of spindle poles (multipolarity) (EA.hy926 cells; EA.hy926, IC50 (130 nM)): 3.9 ± 0.99
number of spindle poles (multipolarity) (EA.hy926 cells; EA.hy926, IC80 (300 nM)): 8.8 ± 2.3
